pKi: −log10 of the molar value.
What was measured:
[1] = test system: TGF-β-stimulated SMAD3 phosphorylation in BEAS-2B cells; assay: Cellular ALK5 potency assay, inhibition of TGF-β stimulated pSMAD3 formation in BEAS-2B cells; assay type: cell-based; settings: Homo sapiens, inhibition of TGF-β (10 ng/mL) stimulated pSMAD3 formation, 1 hour compound incubation, read-out: BEAS2B pIC50 (converted)
Method: Example 255: Cellular ALK5 Potency Assay to Measure pIC50, Inhibition of TGF-β Stimulated pSMAD3 Formation in BEAS-2B Cells
The potency of compounds of the present disclosure for inhibition of TGF-β-stimulated SMAD3 phosphorylation was measured in BEAS-2B cells, a human lung epithelial cell line. TGF-β signals through activin receptor-like kinase 5 (ALK5) immediately prior to SMAD3 phosphorylation.
BEAS-2B cells were grown using 50% DMEM (Life Technologies) and 50% F-12 (Life Technologies) media, supplemented with 10% Fetal Bovine Serum (ATCC), 25 mM HEPES (Life Technologies), and 1×Pen-Strep (Life Technologies). Cells were cultured in a humidified incubator set at 37° C., 5% CO2, and trypsonized using 0.25% Trypsin with 0.5% polyvinylpyrrolidone (PVP).
For the assay, BEAS-2B cells were seeded at 7,500 cells/well (25 μL/well) in a 384-well plate and cultured overnight. Before dosing, growth media was aspirated and the wells were rinsed with HBSS Buffer (HBSS with Calcium and Magnesium, Life Technologies) supplemented with 25 mM HEPES (Life Technologies) and 1% Bovine Serum Albumin (Roche). Compounds were serially diluted in DMSO, then further diluted with supplemented HBSS Buffer (50 μL/well) to create a compound plate 3× of the final assay concentration, at 0.3% DMSO. The diluted compounds were then added to the cells (8 μL/well) and incubated at 37° C., 5% CO2 for 1 hour. After the compound incubation, TGF-β (R&D Systems) reconstituted in supplemented HBSS Buffer was added to the cells ([…], final concentration 10 ng/mL) and incubated for a further 30 minutes, after which the cells were immediately lysed with AlphaLISA lysis buffer (PerkinElmer). AlphaLISA Acceptor and Detector beads (PerkinElmer) were added 2 hours apart, then incubated overnight to be read the next day. The potency of the compound was determined through analysis of dose-dependent quantified changes in pSMAD3 signal from baseline (non-compound treated TGF-β stimulated cells). Data are expressed as pIC50 (negative decadic logarithm IC50) values.

[2] = biological target: T1, recombinant human ALK5 (TGF-βR1) protein (Homo sapiens, UniProt P36897); assay: Biochemical ALK5 (TGF-βR1) assay to measure pKi (LANCE Ultra ULight kinase assay); settings: apparent pKi, converted from pIC50 using the Cheng-Prusoff equation
T1 construct: purchased Life Technologies PR9075A
T1 sequence (P36897 34-503): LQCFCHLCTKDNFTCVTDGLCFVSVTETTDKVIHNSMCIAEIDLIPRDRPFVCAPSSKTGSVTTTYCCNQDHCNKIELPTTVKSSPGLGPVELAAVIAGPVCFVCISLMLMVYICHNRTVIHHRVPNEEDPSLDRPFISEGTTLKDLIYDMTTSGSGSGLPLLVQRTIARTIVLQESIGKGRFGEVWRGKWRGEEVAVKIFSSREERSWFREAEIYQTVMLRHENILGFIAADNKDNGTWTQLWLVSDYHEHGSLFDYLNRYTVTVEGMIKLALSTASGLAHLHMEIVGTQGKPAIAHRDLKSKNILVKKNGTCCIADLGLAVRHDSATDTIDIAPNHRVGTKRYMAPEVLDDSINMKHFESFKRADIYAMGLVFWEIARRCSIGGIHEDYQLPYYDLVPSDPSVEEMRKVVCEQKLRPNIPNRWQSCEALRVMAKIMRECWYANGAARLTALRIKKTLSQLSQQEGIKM
Method: Example 254: Biochemical ALK5 (TGF-βR1) Assay to Measure pKi
The assays were performed in a 384-well plate (24 columns×16 wells/rows). An Echo® 550 Liquid Handler (Labcyte) was used to prepare various intermediate concentrations of compounds of the present disclosure in 100% DMSO. From the intermediate concentrations, a range of concentrations (from 10 μM to 25 pM corresponding to volumes up to 105 nL) were prepared and ejected into a final assay plate to be used to create individual dose response curves for each of the subject compounds. To a separate column within the assay plate, 105 nL of DMSO in each well was used to establish a maximum assay signal. Additionally, 105 nL of 100 μM SD-208, a selective TGF-βR1 inhibitor (Catalog #S7624, Selleck Chemicals), was used in another column of wells to establish a minimal assay signal.
With a multidrop dispenser, 8 μL of enzyme mixture (1.25× final) was added to each well. The enzyme mixture consisted of 250 pM ALK5 enzyme and 62.5 nM peptide substrate (LANCE® (lanthanide chelate excite) Ultra ULight™-DNA Topoisomerase 2-alpha (Thr1342)) prepared in assay buffer (50 mM HEPES, 10 mM MgCl2, 1 mM EGTA, 0.01% Tween-20, pH 7.5 at room temperature) with 2 mM DTT added prior to use. The plate was then sealed with an adhesive seal and allowed to equilibrate for 60 minutes at room temperature.
Next, 2 μL of 125 μM ATP (5× final, 125 μM ATP prepared in assay buffer with 2 mM DTT) was added to the incubated mixtures, covered with a MicroClime® Environmental Lid (Product No. LLS-0310, Labcyte) and immediately transferred to 37° C. The reactions were allowed to proceed at 37° C. for 60 minutes before terminating with the addition of 10 μL of detection antibody (LANCE® (lanthanide chelate excite) Ultra Europium-anti-phospo-DNA Topoisomerase 2-alpha (Thr1342)) in detection mixture (12 mM EDTA, 4 nM detection antibody prepared in detection buffer (50 mM Tris-HCl, 150 mM NaCl, 0.5% BSA (Fraction V), pH 7.0)) at room temperature. The plate was then read on a Perkin Elmer EnVision Plate Reader using europium specific reader settings with excitation and emission wavelengths set to 320 or 340 nm and 665 nm, respectively.
For dose-response analyses, percent inhibition versus compound concentrations were plotted, and pIC50 values were determined from a 4-parameter robust fit model with GraphPad Prism V5 Software (GraphPad Software, Inc., La Jolla, Calif.). This model obtains pIC50 values by fitting the sigmodial dose-response (variable slope) equation to the data. Results were expressed as pIC50 (negative logarithm of IC50) and subsequently converted to pKi (negative logarithm of dissociate constant, K) using the Cheng-Prusoff equation.
The higher the value of pKi (lower value of Ki), the greater the inhibition of ALK5 activity.

| Structure (SMILES) | IC50 [1] [nM] | pKi [2] |
| --- | --- | --- |
| CC(C)N1CCN(CCNc2cnc3ccc(-c4c[nH]nc4-c4cc(Cl)c(F)cc4F)nc3c2)CC1 [Compound 6-1, 6-(3-(5-chloro-2,4-difluorophenyl)-1H-pyrazol-4-yl)-N-(2-(4-isopropylpiperazin-1-yl)ethyl)-1,5-naphthyridin-3-amine] | 25.1 to 158 | 9.50 to 10.40 |
| Cn1cccc(-c2cnc3ccc(-c4c[nH]nc4-c4ccc(F)c(F)c4)nc3c2)c1=O [Compound 8-16, 3-[6-[3-(3,4-difluorophenyl)-1H-pyrazol-4-yl]-1,5-naphthyridin-3-yl]-1-methyl-pyridin-2-one] | 25.1 to 158 | 7.50 to 8.40 |
| COCc1cccc(-c2[nH]cnc2-c2ccc3ncc(NCCN4CCNCC4)cc3n2)c1 [Compound 15-1, 6-(5-(3-(methoxymethyl)phenyl)-1H-imidazol-4-yl)-N-(2-(piperazin-1-yl)ethyl)-1,5-naphthyridin-3-amine] | 200 to 1260 | 7.50 to 8.40 |
| CN1CCC(Nc2cnc3ccc(-c4c[nH]nc4-c4cc(Cl)ccc4F)nc3c2)CC1 [Compound 1-3, 6-[3-(5-chloro-2-fluoro-phenyl)-1H-pyrazol-4-yl]-N-(1-methyl-4-piperidyl)-1,5-naphthyridine-3-amine] | ≤ 20 | 9.50 to 10.40 |
| NCCN1CCN(c2cnc3ccc(-c4c[nH]nc4-c4cc(Cl)c(F)cc4F)nc3c2)CC1 [Compound 6-36, 2-[4-[6-[3-(5-chloro-2,4-difluoro-phenyl)-1H-pyrazol-4-yl]-1,5-naphthyridin-3-yl]piperazin-1-yl]ethanamine] | 25.1 to 158 | 9.50 to 10.40 |
| Fc1ccc(Cl)cc1-c1n[nH]cc1-c1ccc2ncc(-c3ncn4c3CNCC4)cc2n1 [Compound 1-113, 2-[3-(5-chloro-2-fluoro-phenyl)-1H-pyrazol-4-yl]-7-(5,6,7,8-tetrahydroimidazo[1,5-a]pyrazin-1-yl)-1,5-naphthyridine] | 25.1 to 158 | 9.50 to 10.40 |
| CC(C)N1CCCN(c2cnc3ccc(-c4c[nH]nc4-c4cc(Cl)ccc4F)nc3c2)CC1C (racemic) [Compound 1-82, 2-[3-(5-chloro-2-fluoro-phenyl)-1H-pyrazol-4-yl]-7-[rac-(3S)-4-isopropyl-3-methyl-1,4-diazepan-1-yl]-1,5-naphthyridine] | 25.1 to 158 | 8.50 to 9.40 |
| Fc1ccc(Cl)cc1-c1n[nH]cc1-c1ccc2ncc(NC3CCNCC3)cc2n1 [Compound 1-24, 6-[3-(5-chloro-2-fluoro-phenyl)-1H-pyrazol-4-yl]-N-(4-piperidyl)-1,5-naphthyridin-3-amine] | 25.1 to 158 | 9.50 to 10.40 |
| Fc1ccc(Cl)cc1-c1n[nH]cc1-c1ccc2ncc(NCC3CCCNC3)cc2n1 (stereo not drawn) [Compound 1-117, 6-[3-(5-chloro-2-fluoro-phenyl)-1H-pyrazol-4-yl]-N-(3-piperidylmethyl)-1,5-naphthyridin-3-amine] | 200 to 1260 | 8.50 to 9.40 |
| COCC(C)(CNc1cnc2ccc(-c3c[nH]nc3-c3cc(Cl)ccc3F)nc2c1)N1CCN(C(C)C)CC1 (stereo not drawn) [Compound 1-6, 6-[3-(5-chloro-2-fluoro-phenyl)-1H-pyrazol-4-yl]-N-[2-(4-isopropylpiperazin-1-yl)-3-methoxy-2-methyl-propyl]-1,5-naphthyridin-3-amine] | 200 to 1260 | 8.50 to 9.40 |
| CN(C)C1CCN(c2cnc3ccc(-c4c(-c5cc(Cl)ccc5F)nc5ccccn45)nc3c2)C1 (racemic) [Compound 3-4, rac-(3S)-1-[6-[2-(5-chloro-2-fluoro-phenyl)imidazo[1,2-a]pyridin-3-yl]-1,5-naphthyridin-3-yl]-N,N-dimethyl-pyrrolidin-3-amine] | 200 to 1260 | 9.50 to 10.40 |
| COC(=O)N1CCc2nnc(-c3cnc4ccc(-c5c[nH]nc5-c5cc(Cl)ccc5F)nc4c3)cc2C1 [Compound 1-126, methyl 3-[6-[3-(5-chloro-2-fluoro-phenyl)-1H-pyrazol-4-yl]-1,5-naphthyridin-3-yl]-7,8-dihydro-5H-pyrido[4,3-c]pyridazine-6-carboxylate] | 25.1 to 158 | 9.50 to 10.40 |
| Fc1cc(F)c(-c2n[nH]cc2-c2ccc3ncc(-c4cnn(CC5CNC5)c4)cc3n2)cc1Cl [Compound 6-42, 7-[1-(azetidin-3-ylmethyl)pyrazol-4-yl]-2-[3-(5-chloro-2,4-difluoro-phenyl)-1H-pyrazol-4-yl]-1,5-naphthyridine] | 25.1 to 158 | 9.50 to 10.40 |
| Fc1ccc(Cl)cc1-c1n[nH]cc1-c1ccc2ncc(N3CC(N4CCCCC4)C3)cc2n1 [Compound 1-40, 2-[3-(5-chloro-2-fluoro-phenyl)-1H-pyrazol-4-yl]-7-[3-(1-piperidyl)azetidin-1-yl]-1,5-naphthyridine] | 25.1 to 158 | 9.50 to 10.40 |
| CN(CC1CNC1)c1cnc2ccc(-c3c[nH]nc3-c3cc(Cl)c(F)cc3F)nc2c1 [Compound 6-32, N-(azetidin-3-ylmethyl)-6-[3-(5-chloro-2,4-difluoro-phenyl)-1H-pyrazol-4-yl]-N-methyl-1,5-naphthyridin-3-amine] | 25.1 to 158 | 9.50 to 10.40 |
| CN(CC1CNC1)c1cnc2ccc(-c3nc[nH]c3-c3cc(Cl)c(F)cc3F)nc2c1 [Compound 7-6, N-(azetidin-3-ylmethyl)-6-[5-(5-chloro-2,4-difluoro-phenyl)-1H-imidazol-4-yl]-N-methyl-1,5-naphthyridin-3-amine] | 25.1 to 158 | 9.50 to 10.40 |
| Fc1ccc(Cl)cc1-c1n[nH]cc1-c1ccc2ncc(-c3cnc4n3CCCN4)cc2n1 [Compound 1-124, 2-[3-(5-chloro-2-fluoro-phenyl)-1H-pyrazol-4-yl]-7-(5,6,7,8-tetrahydroimidazo[1,2-a]pyrimidin-3-yl)-1,5-naphthyridine] | 25.1 to 158 | 9.50 to 10.40 |
| NCCn1cc(-c2cnc3ccc(-c4nc[nH]c4-c4cc(Cl)c(F)cc4F)cc3c2)cn1 [Compound 22-3, 2-[4-[6-[5-(5-chloro-2,4-difluoro-phenyl)-1H-imidazol-4-yl]-3-quinolyl]pyrazol-1-yl]ethanamine] | 25.1 to 158 | 9.50 to 10.40 |

Reference: patent US11730720B2, “ALK5 inhibitors” (THERAVANCE BIOPHARMA R&D IP, LLC, priority 2018, dated 2023)
